This passage reports ED50 results from patent EP0178388A1, “Quinolinecarboxylic acid derivatives” (KYORIN PHARMACEUTICAL CO., LTD., priority 1984, dated 1986).

For one assay, the system named is P. aeruginosa IID 1210. As to the kind of experiment: In vivo antibacterial activity against systemic infection in mice. On the set-up: species or system mice (ICR-S). As to conditions: Pseudomonas aeruginosa, IID1210; P. aeruginosa IID 1210, mice (ICR-S), intraperitoneal infection, oral at 1 hour after infection, challenge dose 2.5 x 10^5 cfu/mouse; read-out: ED50. How it is done: (§1) Experiment 2 In vivo antibacterial activity against systemic infection in mice (ICR-S)
(§2) The infections were produced by intraperitoneal infection of a suspension of the bacterial culture corresponding to the germ studied. The product was administered orally at 1 hour after the infection. The 50% effective dose (ED50) which protects 50% of the animals from death caused by the infection was determined from the relation between dosage and survival rate.

For the next assay, the system named is S. aureus Smith. Described as above. On the set-up: species or system mice (ICR-S). To be noted: Staphylococcus aureus; S. aureus Smith, mice (ICR-S), intraperitoneal infection, oral at 1 hour after infection, challenge dose 3.5 x 10^5 cfu/mouse; read-out: ED50. How it is done:
as §1, §2

Structures can show the parent of a compound that is named as a salt.
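Also: ED50 in mg/kg.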

Usually ED50 stands for the midpoint of the dose-response relation. With `CC1CN(c2c(F)cc3c(=O)c(C(=O)O)cn(C4CC4)c3c2Cl)CCN1` (stereo not drawn) [Example 5, 8-Chloro-l-cyclopropyl-6-fluoro-1,4-dihydro-7-(3-methyl-1-piperazinyl)-4-oxoquinoline-3-carboxylic acid hydrochloride], the ED50 in the assay on P. aeruginosa IID 1210 came to 3.2 mg/kg; in the assay with S. aureus Smith, 0.89 mg/kg.
